From ChEMBL document CHEMBL5576062 (Bioorg Med Chem Lett, 2024)
Activity calls are given as the source filed them. The calls are words filed in the database; no cut-off is given here.

Legend:
Histone deacetylase 8 = target: T1, Histone deacetylase 8 (Homo sapiens, UniProt Q9BY41); assay: Inhibition of HDAC8 (unknown origin) by SAMDI high throughput mass spectrometry
T1 sequence (Q9BY41 whole entry): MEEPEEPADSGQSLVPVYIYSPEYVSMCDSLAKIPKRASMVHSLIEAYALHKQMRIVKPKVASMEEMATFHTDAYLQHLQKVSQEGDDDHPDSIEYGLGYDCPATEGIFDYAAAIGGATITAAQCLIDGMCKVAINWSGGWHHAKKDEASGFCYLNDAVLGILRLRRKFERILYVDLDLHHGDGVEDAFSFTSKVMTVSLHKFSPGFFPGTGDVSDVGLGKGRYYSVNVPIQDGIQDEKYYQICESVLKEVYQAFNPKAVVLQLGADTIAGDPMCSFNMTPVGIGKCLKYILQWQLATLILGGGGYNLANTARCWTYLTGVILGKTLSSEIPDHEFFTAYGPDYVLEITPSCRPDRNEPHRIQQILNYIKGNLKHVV

[1] = Binding affinity to Zinc ion assessed as metal chelating activity
[2] = Binding affinity to Zinc ion assessed as metal chelating activity at approximately 1 uM

COc1ccc(Cn2ccc3ccc(C(=O)Nc4ccccc4O)cc32)cc1
IC50 (Histone deacetylase 8): 220 µM

COc1ccc(Cn2ccc3ccc(-c4noc(C(F)(F)F)n4)cc32)cc1
IC50 (Histone deacetylase 8): > 1000 µM

COc1ccc(Cn2ccc3ccc(NC(=O)c4ccccc4SC)cc32)cc1
IC50 (Histone deacetylase 8): 340 µM

COc1ccc(Cn2ccc3ccc(C(=O)c4cc(C)on4)cc32)cc1
IC50 (Histone deacetylase 8): 200 µM

COc1ccc(Cn2ccc3ccc(C(=O)N/N=C\c4ccccc4O)cc32)cc1
IC50 (Histone deacetylase 8): > 1000 µM

COc1ccc(Cn2ccc3ccc(C(=O)Nc4ccccc4SC)cc32)cc1
IC50 (Histone deacetylase 8): 360 µM

COc1ccc(Cn2ccc3ccc(NC(=O)c4ccccn4)cc32)cc1
IC50 (Histone deacetylase 8): 490 µM

CCC(=O)c1ccc2ccn(Cc3ccc(OC)cc3)c2c1
IC50 (Histone deacetylase 8): 120 µM

COc1ccc(Cn2ccc3ccc(/C(N)=N/O)cc32)cc1
IC50 (Histone deacetylase 8): 340 µM

COc1ccc(Cn2ccc3ccc(-c4nn[nH]n4)cc32)cc1
IC50 (Histone deacetylase 8): > 1000 µM

COc1ccc(Cn2ccc3ccc(C(=O)C(F)(F)F)cc32)cc1
IC50 (Histone deacetylase 8): 570 µM

COc1ccc(Cn2ccc3ccc(NC(=O)c4ccccc4N)cc32)cc1
IC50 (Histone deacetylase 8): 130 µM

COc1ccc(Cn2ccc3ccc(-c4noc(=S)[nH]4)cc32)cc1
IC50 (Histone deacetylase 8): 330 µM

NC(Cc1ccc(Cl)cc1Cl)C(=O)N1Cc2ccccc2C1 (stereo not given)
IC50 (Histone deacetylase 8): 7.9 µM | Activity [1]: inactive

COc1ccc(Cn2ccc3ccc(C(=O)NCCO)cc32)cc1
IC50 (Histone deacetylase 8): 170 µM

COc1ccc(Cn2ccc3ccc(-c4noc(=O)[nH]4)cc32)cc1
IC50 (Histone deacetylase 8): 140 µM

COc1ccc(Cn2ccc3ccc(C(=O)Nc4ccccc4N)cc32)cc1
IC50 (Histone deacetylase 8): 150 µM

COc1ccc(Cn2ccc3ccc(NC(=O)c4ccccc4O)cc32)cc1
IC50 (Histone deacetylase 8): 360 µM

CCC(=O)Cc1ccc2ccn(Cc3ccc(OC)cc3)c2c1
IC50 (Histone deacetylase 8): 240 µM

COc1ccc(Cn2ccc3ccc(C(=O)NO)cc32)cc1
Activity [2]: Active

COc1ccc(Cn2ccc3ccc(C(=O)NS(C)(=O)=O)cc32)cc1
IC50 (Histone deacetylase 8): > 1000 µM

COc1ccc(Cn2ccc3ccc(C(=O)NCC(C)O)cc32)cc1 (stereo not given)
IC50 (Histone deacetylase 8): 890 µM

COc1ccc(Cn2ccc3ccc(C(=O)NS(=O)(=O)N(C)C)cc32)cc1
IC50 (Histone deacetylase 8): 320 µM

COc1ccc(Cn2ccc3ccc(C(=O)c4nccs4)cc32)cc1
IC50 (Histone deacetylase 8): 210 µM
